Laboratory results: patent EP3995135B1, “PROLONGED RELEASE DOSAGE FORM OF […]-(+)- TARTARIC ACID SALT” (Grünenthal GmbH, priority 2020, dated 2022)
Counter-ions that a name gives are not always drawn.

Key:
[1] = Intrinsic dissolution (dissolution rate) of compressed salt samples in a Wood apparatus; assay type: physicochemical; conditions: 37°C, 900 ml, 50 U/min
Method: 100 mg Tapentadol, entweder in Form des Hydrochloridsalzes oder des Salzes mit L-(+)-Weinsäure wurden mit einer Presskraft von 200 kg (gravitativ) bei einer Oberfläche von 0,5 cm^2 1 Minute verpresst. Die so erhaltenen verpressten Proben wurden in einem Wood-Apparat bei 37°C in 900 ml Auflösungsmedium bei verschiedenen pH-Werten und einer Paddeldrehgeschwindigkeit von 50 U/min auf ihre Auflösungsrate untersucht.

[2] = Thermodynamic solubility (saturation solubility, HPLC quantification as free base); assay type: physicochemical; conditions: for Thermodynamische Löslichkeit, Assay ausgedrückt als Base: 24 h at 25°C; for pH Ende: pH of the solution at the end (24 h, 25°C); for pH Start: pH of the solution at the start
Method: Die thermodynamische Löslichkeit von Tapentadolhydrochlorid und des Salzes von Tapentadol mit L-(+)-Weinsäure wurde als Sättigungslöslichkeit in verschiedenen Medien bei verschiedenen pH-Werten bestimmt. Die Lösungen wurden 24 Stunden bei 25°C gerührt und die pH-Werte der Lösungen zu Beginn und am Ende der Experimente wurden gemessen. Die gelöste Menge an Tapentadol wurde durch HPLC quantifiziert (freie Base von Tapentadol). Die experimentellen Ergebnisse sind in der Tabelle unten zusammengestellt: […]

Compound | intrinsische Auflösung (Auflösungsrate) ([1]; pH 1,0, 0 min) [%] | intrinsische Auflösung (Auflösungsrate) ([1]; pH 1,0, 1 min) [%] | intrinsische Auflösung (Auflösungsrate) ([1]; pH 1,0, 3 min) [%] | intrinsische Auflösung (Auflösungsrate) ([1]; pH 1,0, 5 min) [%] | intrinsische Auflösung (Auflösungsrate) ([1]; pH 4,5, 0 min) [%] | intrinsische Auflösung (Auflösungsrate) ([1]; pH 4,5, 1 min) [%] | intrinsische Auflösung (Auflösungsrate) ([1]; pH 4,5, 3 min) [%] | intrinsische Auflösung (Auflösungsrate) ([1]; pH 4,5, 5 min) [%] | intrinsische Auflösung (Auflösungsrate) ([1]; pH 6,8, 0 min) [%] | intrinsische Auflösung (Auflösungsrate) ([1]; pH 6,8, 1 min) [%] | intrinsische Auflösung (Auflösungsrate) ([1]; pH 6,8, 3 min) [%] | intrinsische Auflösung (Auflösungsrate) ([1]; pH 6,8, 5 min) [%] | intrinsische Auflösung (Auflösungsrate) ([1]; pH 7,4, 0 min) [%] | intrinsische Auflösung (Auflösungsrate) ([1]; pH 7,4, 1 min) [%] | intrinsische Auflösung (Auflösungsrate) ([1]; pH 7,4, 3 min) [%] | intrinsische Auflösung (Auflösungsrate) ([1]; pH 7,4, 5 min) [%] | Thermodynamische Löslichkeit, Assay ausgedrückt als Base ([2]; medium 0,1 M HCl) | Thermodynamische Löslichkeit, Assay ausgedrückt als Base ([2]; medium Acetat pH 4,5) | Thermodynamische Löslichkeit, Assay ausgedrückt als Base ([2]; medium SIF sp pH 6,8) | Thermodynamische Löslichkeit, Assay ausgedrückt als Base ([2]; medium Wasser) | other results
CC[C@@H](c1cccc(O)c1)[C@@H](C)CN(C)C [Salz von Tapentadol mit L-(+)-Weinsäure, (-)-(1R,2R)-3-(3-Dimethylamino-1-ethyl-2-methylpropyl)phenol] | 0 | 19 | 51 | 77 | 0 | 20 | 51 | 77 | 0 | 19 | 44 | 67 | 0 | 18 | 44 | 65 | 26,7 g/100 ml | 26,6 g/100 ml | 12,6 g/100 ml | 26,4 g/100 ml | Thermodynamische Löslichkeit, Assay ausgedrückt als Base ([2]; medium Phosphat pH 7,4): 12,9 g/100 ml; pH Ende ([2]; medium 0,1 M HCl): 3,39; pH Ende ([2]; medium Acetat pH 4,5): 3,53; pH Ende ([2]; medium Phosphat pH 7,4): 3,56; pH Ende ([2]; medium SIF sp pH 6,8): 3,55; pH Ende ([2]; medium Wasser): 3,38; pH Start ([2]; medium 0,1 M HCl): 1,15; pH Start ([2]; medium Acetat pH 4,5): 4,51; pH Start ([2]; medium Phosphat pH 7,4): 7,53; pH Start ([2]; medium SIF sp pH 6,8): 6,83; pH Start ([2]; medium Wasser): 6,19
CC[C@@H](c1cccc(O)c1)[C@@H](C)CN(C)C [Tapentadolhydrochlorid, (-)-(1R,2R)-3-(3-Dimethylamino-1-ethyl-2-methylpropyl)phenol, reference compound] | 0 | 52 | 95 | 99 | 0 | 60 | 91 | 95 | 0 | 38 | 79 | 92 | 0 | 27 | 65 | 80 | 31,2 g/100 ml | 32,7 g/100 ml | 32,4 g/100 ml | 33,0 g/100 ml | Thermodynamische Löslichkeit, Assay ausgedrückt als Base ([2]; medium Citrat pH 7.4): 31,9 g/100 ml; pH Ende ([2]; medium 0,1 M HCl): 0,83; pH Ende ([2]; medium Acetat pH 4,5): 4,29; pH Ende ([2]; medium Citrat pH 7.4): 6,33; pH Ende ([2]; medium SIF sp pH 6,8): 6,23; pH Ende ([2]; medium Wasser): 4,63; pH Start ([2]; medium 0,1 M HCl): 1,11; pH Start ([2]; medium Acetat pH 4,5): 4,54; pH Start ([2]; medium Citrat pH 7.4): 7,39; pH Start ([2]; medium SIF sp pH 6,8): 6,82
